According to patent US20110256121A1, “METHODS AND KITS FOR DIAGNOSING OR MONITORING AUTOIMMUNE AND CHRONIC INFLAMMATORY DISEASES” (THE REGENTS OF THE UNIVERSITY OF MICHIGAN, priority 2008, published 2011):

Legend:
Type in all cases: cell-based, human
T cell gene expression = assay: Microarray detection of KIR expression in 5-azaC treated T cells
Experimental: T cell purification and culture. Peripheral blood mononuclear cells (PBMC) were isolated from healthy donors by density gradient centrifugation, stimulated for 18 hours with 1 μg/mlphytohemagglutinin (PHA) (Murex, Norcross, Ga.), then treated or not with 5 μm 5-azacytidine (5-azaC, Sigma, St. Louis, Mo.) for 72 hours as described (6). Total T cells, CD4^+ T cells or CD8′ T cells then were purified using the pan T cell isolation kit II or the CD4^+ and CD8^+ T cell isolation kit II from Miltenyi (Auburn, Calif.). T cells were typically >94% CD3^+ by flow cytometry. Jurkat cells (E6-1) were maintained in culture as described (11). This protocol was approved by the University of Michigan Institutional Review Board.
Microarray analysis. RNA from 5-azaC treated and untreated T cells was analyzed with HG-U133A arrays (Affymetrix, Santa Clara Calif.), containing 22283 probe-sets representing ˜13000 distinct genes, as described (6). Probe-set intensities were obtained and normalized as described (12). Two-sample T-tests were used to compare groups, and fold-changes were determined using the ratio of the group means, after replacing means of less than 50 with 50. The array data are available from NCBI's Gene Expression Omnibus using series accession number GSE6008.
Microarray detection of KIR expression in 5-azaC treated T cells. Effects of DNA methylation inhibition on T cell gene expression were tested by stimulating PBMC from healthy donors with PHA, treating with 5-azaC, and comparing gene expression patterns in treated and untreated T cells with microarrays. 682 probe-sets were obtained giving p<0.01, out of a total of 22283 probe-sets, so that approximately 223 of the 682 probe-sets were expected to be false-positives. Further demanding at least a 1.5 fold difference in the means of treated and untreated groups reduced the list to 250 probe-sets, 6 of which were KIR genes (KIR2DL1 5.7 fold p=0.003, KIR3DL1 5.7 fold p=0.001, KIR2DL2 4.2 fold p=0.0005, KIR2DS4 2.8 fold p=0.009, KIR2DL3 2.3 fold p=0.004, and KIR2DL4 1.7 fold p=0.008), out of a total of 12 KIR genes on the array, indicating enrichment of this gene family (FIG. 24).

KIR2DL4 promoter = KIR2DL4 promoter methylation, bisulfite sequencing and MS-PCR
Experimental: (§1) Bisulfite conversion and DNA sequencing. Genomic DNA was isolated from T cells using FlexiGene DNA Kits (QIAGEN) then treated with sodium bisulfite as described (15). HotStar Taq (QIAGEN) was used for amplification with the following conditions: initial incubation 95° C. 15 min, then 45 cycles 95° C. 30 s, 52° C. 30 s and 72° C. 30 s. PCR products were purified using QIAEXII Gel Extraction Kits (QIAGEN), and cloned using the pGEM-T Easy Vector System (Promega, Madison, Wis.). 10 cloned fragments were sequenced for each sample by the University of Michigan Sequencing Core.
(§2) Real-time quantitative methylation specific PCR (MSP). Three real-time MSP assays were developed for detection and quantitation of each KIR gene: one specific for the bisulfite-converted methylated sequence, one for the bisulfite-converted unmethylated sequence, and a loading control comprising primers to an adjacent bisulfite-converted sequence lacking CG pairs. MSP reactions were performed using QuantiTect SYBR Green PCR kits (QIAGEN) according to the manufacture's protocol using […] of each primer, 100 ng converted DNA and the Rotor-Gene 3000. […] Levels of amplified methylated and unmethylated fragments were standardized to the control fragment, and the methylation index calculated as […]

KIR2DL2 promoter = KIR2DL2 promoter methylation, bisulfite sequencing and MS-PCR
Experimental: as §1, §2

[1] = CD4+ and CD8+ cells, 5-azaC treated vs untreated

## Nc1ncn([C@@H]2O[C@H](CO)[C@@H](O)[C@H]2O)c(=O)n1 [5-azaC, 5-azacytidine]
T cell gene expression; PHA-stimulated, p=0.0005
  KIR2DL2 expression, treated vs untreated: 4.2 fold
T cell gene expression; PHA-stimulated, p=0.001
  KIR3DL1 expression, treated vs untreated: 5.7 fold
T cell gene expression; PHA-stimulated, p=0.003
  KIR2DL1 expression, treated vs untreated: 5.7 fold
T cell gene expression; PHA-stimulated, p=0.004
  KIR2DL3 expression, treated vs untreated: 2.3 fold
T cell gene expression; PHA-stimulated, p=0.008
  KIR2DL4 expression, treated vs untreated: 1.7 fold
T cell gene expression; PHA-stimulated, p=0.009
  KIR2DS4 expression, treated vs untreated: 2.8 fold
T cell gene expression; not statistically significant
  KIR2DS1 expression increase: > 1.5 fold
  KIR2DS3 expression increase: > 1.5 fold
  KIR3DL2 expression increase: > 1.5 fold
KIR2DL4 promoter; [1]
  KIR2DL4 promoter methylation pattern, bisulfite sequencing: generalized demethylation in the treated cells
KIR2DL4 promoter; CD4+ and CD8+ subsets, p<0.001
  KIR2DL4 promoter methylation index, MS-PCR: demethylates these regions in all 5 subjects
KIR2DL2 promoter; [1]
  KIR2DL2 promoter methylation pattern, bisulfite sequencing: generalized demethylation throughout the region
KIR2DL2 promoter; CD4+ and CD8+ subsets, p<0.001
  KIR2DL2 promoter methylation index, MS-PCR: demethylates these regions in all 5 subjects
